Test results reported in the kinase profiling compilation of Christmann-Franck et al. (2016).
Several values for one entry are separate records, joined by “and”; a condition that tells them apart may be missing. Identical values can stand only once.

How the values were obtained:
Assay in all cases: radiometric filter-binding kinase assay, Kinase HotSpot
Conditions in all cases: compound 0.5 µM; ATP 10 µM
SRPK1 (human) = SRPK1 (human) (UniProt Q96SB4)
LTK (human) = LTK (human) (UniProt P29376)
PAK7 (human) = PAK7 (human) (UniProt Q9P286)
PAK7 (human), sequence (Q9P286 whole entry, looked up): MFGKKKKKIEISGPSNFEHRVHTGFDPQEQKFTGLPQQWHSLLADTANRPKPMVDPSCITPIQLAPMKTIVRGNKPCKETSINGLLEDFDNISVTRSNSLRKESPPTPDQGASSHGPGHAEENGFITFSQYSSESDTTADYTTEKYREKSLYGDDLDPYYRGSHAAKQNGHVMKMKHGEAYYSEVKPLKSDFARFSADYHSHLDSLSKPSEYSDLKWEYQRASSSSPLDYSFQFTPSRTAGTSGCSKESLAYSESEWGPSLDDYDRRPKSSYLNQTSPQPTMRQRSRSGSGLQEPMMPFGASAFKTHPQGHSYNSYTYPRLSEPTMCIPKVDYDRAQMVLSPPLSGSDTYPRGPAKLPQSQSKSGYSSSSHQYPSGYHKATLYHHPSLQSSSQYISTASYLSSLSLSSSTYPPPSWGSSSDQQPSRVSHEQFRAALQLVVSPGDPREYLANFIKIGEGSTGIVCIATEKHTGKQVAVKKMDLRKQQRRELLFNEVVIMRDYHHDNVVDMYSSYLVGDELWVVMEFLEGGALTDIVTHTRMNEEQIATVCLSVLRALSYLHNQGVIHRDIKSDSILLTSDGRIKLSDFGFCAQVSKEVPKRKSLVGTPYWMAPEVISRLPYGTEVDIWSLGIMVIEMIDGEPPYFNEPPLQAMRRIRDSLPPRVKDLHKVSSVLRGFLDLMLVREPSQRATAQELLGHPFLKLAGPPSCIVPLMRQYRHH

CAMK1G (human) = CAMK1G (human) (UniProt Q96NX5)
MAP2K2 (human) = MAP2K2 (human) (UniProt P36507)
NTRK1 (human) = NTRK1 (human) (UniProt P04629)
MAPK8 (human) = MAPK8 (human) (UniProt P45983)
MAPK8 (human), sequence (P45983 whole entry, looked up): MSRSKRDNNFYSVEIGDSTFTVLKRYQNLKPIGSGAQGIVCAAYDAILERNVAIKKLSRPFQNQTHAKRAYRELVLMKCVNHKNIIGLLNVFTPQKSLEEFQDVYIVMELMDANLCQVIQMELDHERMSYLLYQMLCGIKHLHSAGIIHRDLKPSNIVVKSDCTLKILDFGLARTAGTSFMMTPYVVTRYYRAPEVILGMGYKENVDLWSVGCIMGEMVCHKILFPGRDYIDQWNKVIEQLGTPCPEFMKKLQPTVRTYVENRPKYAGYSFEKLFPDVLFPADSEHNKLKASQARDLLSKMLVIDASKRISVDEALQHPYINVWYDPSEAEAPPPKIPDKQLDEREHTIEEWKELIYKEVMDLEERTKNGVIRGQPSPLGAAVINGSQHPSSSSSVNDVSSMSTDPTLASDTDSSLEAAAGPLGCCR

TSSK1B (human) = TSSK1B (human) (UniProt Q9BXA7)
GSK3A (human) = GSK3A (human) (UniProt P49840)
STK33 (human) = STK33 (human) (UniProt Q9BYT3)
MAPKAPK3 (human) = MAPKAPK3 (human) (UniProt Q16644)
JAK3 JH1 JH2 (human) = JAK3 JH1 JH2 (human) (UniProt P52333)
[1] = molecular target: TYK2 JH1 catalytic (human) (UniProt P29597)
NEK4 (human) = NEK4 (human) (UniProt P51957)
SLK (human) = SLK (human) (UniProt Q9H2G2)
GSK3B (human) = GSK3B (human) (UniProt P49841)
NUAK2 (human) = NUAK2 (human) (UniProt Q9H093)
PTK2 (human) = PTK2 (human) (UniProt Q05397)
PRKACA (human) = PRKACA (human) (UniProt P17612)
PRKCB2 (human) = PRKCB2 (human) (UniProt P05771)
PRKCB2 (human), sequence (P05771 whole entry, looked up): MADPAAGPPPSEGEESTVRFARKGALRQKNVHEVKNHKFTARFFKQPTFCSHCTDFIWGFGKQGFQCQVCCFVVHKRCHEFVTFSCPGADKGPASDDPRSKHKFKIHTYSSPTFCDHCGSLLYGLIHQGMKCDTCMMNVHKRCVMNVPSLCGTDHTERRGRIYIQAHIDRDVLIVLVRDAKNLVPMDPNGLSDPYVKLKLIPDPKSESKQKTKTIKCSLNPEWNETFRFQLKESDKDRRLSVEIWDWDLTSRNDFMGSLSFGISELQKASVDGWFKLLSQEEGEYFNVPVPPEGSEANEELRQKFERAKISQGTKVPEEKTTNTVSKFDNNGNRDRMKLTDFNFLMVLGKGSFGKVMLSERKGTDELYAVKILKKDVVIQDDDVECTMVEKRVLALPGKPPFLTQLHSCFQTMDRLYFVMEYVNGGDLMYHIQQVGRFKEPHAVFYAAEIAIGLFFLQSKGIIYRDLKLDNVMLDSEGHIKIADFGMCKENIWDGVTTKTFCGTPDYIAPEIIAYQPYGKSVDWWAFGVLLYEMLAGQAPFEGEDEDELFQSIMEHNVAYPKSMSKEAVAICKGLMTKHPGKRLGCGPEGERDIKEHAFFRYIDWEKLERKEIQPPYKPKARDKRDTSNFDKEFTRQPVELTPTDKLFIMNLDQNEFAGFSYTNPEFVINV

NTRK3 (human) = NTRK3 (human) (UniProt Q16288)
PLK3 (human) = PLK3 (human) (UniProt Q9H4B4)
CAMK4 (human) = CAMK4 (human) (UniProt Q16566)
PRKG1 (human) = PRKG1 (human) (UniProt Q13976)
PRKG1 (human), sequence (Q13976 whole entry, looked up): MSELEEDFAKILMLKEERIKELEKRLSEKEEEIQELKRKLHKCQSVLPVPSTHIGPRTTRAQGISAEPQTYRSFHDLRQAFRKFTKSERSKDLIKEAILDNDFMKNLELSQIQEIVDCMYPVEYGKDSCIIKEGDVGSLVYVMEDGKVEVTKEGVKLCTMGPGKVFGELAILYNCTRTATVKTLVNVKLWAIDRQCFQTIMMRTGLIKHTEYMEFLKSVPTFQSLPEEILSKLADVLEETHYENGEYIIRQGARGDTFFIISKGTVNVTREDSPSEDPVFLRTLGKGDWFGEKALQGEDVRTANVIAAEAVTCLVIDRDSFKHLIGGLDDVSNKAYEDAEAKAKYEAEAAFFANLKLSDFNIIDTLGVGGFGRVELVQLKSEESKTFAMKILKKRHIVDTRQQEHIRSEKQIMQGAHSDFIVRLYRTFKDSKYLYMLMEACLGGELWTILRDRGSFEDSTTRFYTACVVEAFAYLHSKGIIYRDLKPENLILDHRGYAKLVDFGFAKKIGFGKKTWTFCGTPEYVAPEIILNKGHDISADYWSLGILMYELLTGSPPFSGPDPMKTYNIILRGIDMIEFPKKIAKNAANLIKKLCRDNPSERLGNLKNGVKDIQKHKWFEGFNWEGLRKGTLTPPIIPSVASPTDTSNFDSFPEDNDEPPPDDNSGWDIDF

TEK (human) = TEK (human) (UniProt Q02763)
WEE1 (human) = WEE1 (human) (UniProt P30291)
CDC42BPB (human) = CDC42BPB (human) (UniProt Q9Y5S2)
CDC42BPB (human), sequence (Q9Y5S2 whole entry, looked up): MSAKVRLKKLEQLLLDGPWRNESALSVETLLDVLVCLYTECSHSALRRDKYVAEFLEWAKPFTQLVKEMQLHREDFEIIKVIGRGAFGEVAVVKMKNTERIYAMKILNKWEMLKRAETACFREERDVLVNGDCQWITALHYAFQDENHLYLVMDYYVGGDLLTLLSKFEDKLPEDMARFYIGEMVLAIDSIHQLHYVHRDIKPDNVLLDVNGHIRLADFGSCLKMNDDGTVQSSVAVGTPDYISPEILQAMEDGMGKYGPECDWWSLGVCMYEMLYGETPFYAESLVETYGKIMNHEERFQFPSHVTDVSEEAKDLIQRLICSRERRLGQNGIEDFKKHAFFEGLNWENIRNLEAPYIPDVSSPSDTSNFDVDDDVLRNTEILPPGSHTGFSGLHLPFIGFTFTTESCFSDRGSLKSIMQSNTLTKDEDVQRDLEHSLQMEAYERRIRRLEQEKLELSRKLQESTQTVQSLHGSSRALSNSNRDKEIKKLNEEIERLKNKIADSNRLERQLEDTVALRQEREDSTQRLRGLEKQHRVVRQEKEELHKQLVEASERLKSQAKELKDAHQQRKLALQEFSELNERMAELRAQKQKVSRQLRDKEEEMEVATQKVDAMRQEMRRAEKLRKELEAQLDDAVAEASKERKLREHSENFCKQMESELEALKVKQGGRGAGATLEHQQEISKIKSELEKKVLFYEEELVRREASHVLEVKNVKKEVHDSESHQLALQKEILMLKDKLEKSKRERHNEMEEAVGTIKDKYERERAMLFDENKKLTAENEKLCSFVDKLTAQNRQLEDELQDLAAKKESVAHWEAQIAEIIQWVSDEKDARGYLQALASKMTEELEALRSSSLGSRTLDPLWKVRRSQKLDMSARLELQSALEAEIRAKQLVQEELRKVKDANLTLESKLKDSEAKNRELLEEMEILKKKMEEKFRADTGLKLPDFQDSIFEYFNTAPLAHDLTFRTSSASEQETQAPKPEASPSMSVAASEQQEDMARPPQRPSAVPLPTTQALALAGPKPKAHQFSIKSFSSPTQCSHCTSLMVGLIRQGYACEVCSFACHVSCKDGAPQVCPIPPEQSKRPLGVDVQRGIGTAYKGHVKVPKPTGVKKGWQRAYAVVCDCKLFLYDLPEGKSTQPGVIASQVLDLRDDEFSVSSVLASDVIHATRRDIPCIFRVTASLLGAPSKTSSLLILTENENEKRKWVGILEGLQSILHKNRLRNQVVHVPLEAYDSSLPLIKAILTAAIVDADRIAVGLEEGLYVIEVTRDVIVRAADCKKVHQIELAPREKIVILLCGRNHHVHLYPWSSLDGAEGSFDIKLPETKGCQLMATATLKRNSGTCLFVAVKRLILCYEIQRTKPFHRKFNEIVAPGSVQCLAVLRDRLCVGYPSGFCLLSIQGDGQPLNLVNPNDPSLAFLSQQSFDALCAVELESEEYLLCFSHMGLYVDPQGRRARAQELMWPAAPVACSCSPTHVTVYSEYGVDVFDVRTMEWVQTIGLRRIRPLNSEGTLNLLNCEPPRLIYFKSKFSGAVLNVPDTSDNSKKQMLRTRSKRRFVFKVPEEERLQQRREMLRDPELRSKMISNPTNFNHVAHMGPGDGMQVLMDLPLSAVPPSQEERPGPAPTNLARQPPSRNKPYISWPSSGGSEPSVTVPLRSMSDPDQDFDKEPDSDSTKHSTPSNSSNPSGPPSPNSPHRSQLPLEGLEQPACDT

MAPK3 (human) = MAPK3 (human) (UniProt P27361)
CAMK2A (human) = CAMK2A (human) (UniProt Q9UQM7)
AKT1 (human) = AKT1 (human) (UniProt P31749)
DAPK3 (human) = DAPK3 (human) (UniProt O43293)
MARK3 (human) = MARK3 (human) (UniProt P27448)
TNK2 (human) = TNK2 (human) (UniProt Q07912)
MST4 (human) = MST4 (human) (UniProt Q9P289)
CSNK2A1 (human) = CSNK2A1 (human) (UniProt P68400)
CAMK2B (human) = CAMK2B (human) (UniProt Q13554)
MAPK12 (human) = MAPK12 (human) (UniProt P53778)
ACVR1B (human) = ACVR1B (human) (UniProt P36896)
RPS6KA2 KD1 KD2 (human) = RPS6KA2 KD1 KD2 (human) (UniProt Q15349)
RPS6KA2 KD1 KD2 (human), sequence (Q15349 whole entry, looked up): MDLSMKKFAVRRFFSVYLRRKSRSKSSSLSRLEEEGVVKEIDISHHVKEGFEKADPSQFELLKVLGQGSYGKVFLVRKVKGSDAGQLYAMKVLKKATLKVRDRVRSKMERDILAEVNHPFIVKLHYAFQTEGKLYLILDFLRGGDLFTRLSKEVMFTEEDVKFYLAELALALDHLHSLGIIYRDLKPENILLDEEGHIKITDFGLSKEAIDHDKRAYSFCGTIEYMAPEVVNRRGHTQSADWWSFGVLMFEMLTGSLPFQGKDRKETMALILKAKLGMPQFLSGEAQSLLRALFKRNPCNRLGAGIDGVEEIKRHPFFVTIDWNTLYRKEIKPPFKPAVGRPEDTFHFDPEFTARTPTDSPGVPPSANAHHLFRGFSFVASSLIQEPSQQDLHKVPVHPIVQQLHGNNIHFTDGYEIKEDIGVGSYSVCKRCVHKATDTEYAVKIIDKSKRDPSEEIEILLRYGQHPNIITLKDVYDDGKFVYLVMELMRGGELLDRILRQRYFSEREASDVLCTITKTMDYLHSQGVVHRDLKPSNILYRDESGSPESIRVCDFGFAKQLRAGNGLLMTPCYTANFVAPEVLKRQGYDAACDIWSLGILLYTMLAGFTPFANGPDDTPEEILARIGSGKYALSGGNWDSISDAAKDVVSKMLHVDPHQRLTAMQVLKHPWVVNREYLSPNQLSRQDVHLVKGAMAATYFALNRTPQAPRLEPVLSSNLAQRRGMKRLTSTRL

KDR (human) = KDR (human) (UniProt P35968)
ROCK1 (human) = ROCK1 (human) (UniProt Q13464)
AXL (human) = AXL (human) (UniProt P30530)

Compound `CN(C)CCCn1cc(C2=C(c3c[nH]c4ccccc34)C(=O)NC2=O)c2ccccc21` has a residual activity (SRPK1 (human)) of 87%, a residual activity (LTK (human)) of 99.5% and a residual activity (PAK7 (human)) of 92.8%. For the same compound, the residual activity (CAMK1G (human)) was 97.4%, the residual activity (MAP2K2 (human)) was 98.9% and the residual activity (NTRK1 (human)) was 108%. For the same compound, the residual activity (MAPK8 (human)) was 90.2%, the residual activity (TSSK1B (human)) was 89.8% and the residual activity (GSK3A (human)) was 11.2%. It also gave a residual activity (STK33 (human)) of 62.9%, a residual activity (MAPKAPK3 (human)) of 95.3% and a residual activity (JAK3 JH1 JH2 (human)) of 81.5%. The residual activity [1] was 79.3%, the residual activity (NEK4 (human)) was 94.3% and the residual activity (SLK (human)) was 45.8%. It also gave a residual activity (GSK3B (human)) of 7.01%, a residual activity (NUAK2 (human)) of 66% and a residual activity (PTK2 (human)) of 86.1%. It also gave a residual activity (PRKACA (human)) of 72%, a residual activity (PRKCB2 (human)) of 12.6% and a residual activity (NTRK3 (human)) of 20.2%. For the same compound, the residual activity (PLK3 (human)) was 94.9%, the residual activity (CAMK4 (human)) was 89.5% and the residual activity (PRKG1 (human)) was 38.3% and 59.3%. It also gave a residual activity (TEK (human)) of 99.7%, a residual activity (WEE1 (human)) of 101% and a residual activity (CDC42BPB (human)) of 90.8%. The residual activity (MAPK3 (human)) was 108%, the residual activity (CAMK2A (human)) was 35.2% and the residual activity (AKT1 (human)) was 93.5%. It also gave a residual activity (DAPK3 (human)) of 84.5%, a residual activity (MARK3 (human)) of 72% and a residual activity (TNK2 (human)) of 94.7%. It also gave a residual activity (MST4 (human)) of 37.2%, a residual activity (CSNK2A1 (human)) of 99.5% and a residual activity (CAMK2B (human)) of 74.5%. It also gave a residual activity (MAPK12 (human)) of 95.9%, a residual activity (ACVR1B (human)) of 106% and a residual activity (RPS6KA2 KD1 KD2 (human)) of 1.4%. The residual activity (KDR (human)) was 65.5%, the residual activity (ROCK1 (human)) was 92.3% and the residual activity (AXL (human)) was 100%.

Work on `CCCCc1c(-c2ccc(OC)cc2)[nH]c2nccnc12` yielded a residual activity (SRPK1 (human)) of 100%, a residual activity (LTK (human)) of 83.9% and a residual activity (PAK7 (human)) of 88.1%. It also gave a residual activity (CAMK1G (human)) of 102%, a residual activity (MAP2K2 (human)) of 79.4% and a residual activity (NTRK1 (human)) of 109%. The residual activity (MAPK8 (human)) was 74.5%, the residual activity (TSSK1B (human)) was 65.3% and the residual activity (GSK3A (human)) was 55.8%. It also gave a residual activity (STK33 (human)) of 84.6%, a residual activity (MAPKAPK3 (human)) of 98.6% and a residual activity (JAK3 JH1 JH2 (human)) of 92.8%. For the same compound, the residual activity [1] was 38.8%, the residual activity (NEK4 (human)) was 81.3% and the residual activity (SLK (human)) was 76.2%. It also gave a residual activity (GSK3B (human)) of 70.2%, a residual activity (NUAK2 (human)) of 68% and a residual activity (PTK2 (human)) of 81.7%. The residual activity (PRKACA (human)) was 96.6%, the residual activity (PRKCB2 (human)) was 106% and the residual activity (NTRK3 (human)) was 84.4%. For the same compound, the residual activity (PLK3 (human)) was 91.5%, the residual activity (CAMK4 (human)) was 97.6% and the residual activity (PRKG1 (human)) was 102% and 92.7%. The residual activity (TEK (human)) was 96.3%, the residual activity (WEE1 (human)) was 85.9% and the residual activity (CDC42BPB (human)) was 92.5%. It also gave a residual activity (MAPK3 (human)) of 111%, a residual activity (CAMK2A (human)) of 100% and a residual activity (AKT1 (human)) of 113%. The residual activity (DAPK3 (human)) was 102%, the residual activity (MARK3 (human)) was 91.2% and the residual activity (TNK2 (human)) was 51.2%. For the same compound, the residual activity (MST4 (human)) was 75.8%, the residual activity (CSNK2A1 (human)) was 97.8% and the residual activity (CAMK2B (human)) was 97.6%. It also gave a residual activity (MAPK12 (human)) of 102%, a residual activity (ACVR1B (human)) of 112% and a residual activity (RPS6KA2 KD1 KD2 (human)) of 93%. It also gave a residual activity (KDR (human)) of 88.8%, a residual activity (ROCK1 (human)) of 99.9% and a residual activity (AXL (human)) of 110%.
